We go through 23 molecules from ChEMBL document CHEMBL4382262, “Structurally Simple, Readily Available Peptidomimetic 1-Benzyl-5-methyl-4-( n-octylamino)pyrimidin-2(1 H)-one Exhibited Efficient Cardioprotection in a Myocardial Ischemia (MI) Mouse Model” (J Med Chem, 2018).

Assay [1] concerns the target T1, Toll-like receptor 4 (Rattus norvegicus) (UniProt Q9QX05).
T1 sequence (whole entry): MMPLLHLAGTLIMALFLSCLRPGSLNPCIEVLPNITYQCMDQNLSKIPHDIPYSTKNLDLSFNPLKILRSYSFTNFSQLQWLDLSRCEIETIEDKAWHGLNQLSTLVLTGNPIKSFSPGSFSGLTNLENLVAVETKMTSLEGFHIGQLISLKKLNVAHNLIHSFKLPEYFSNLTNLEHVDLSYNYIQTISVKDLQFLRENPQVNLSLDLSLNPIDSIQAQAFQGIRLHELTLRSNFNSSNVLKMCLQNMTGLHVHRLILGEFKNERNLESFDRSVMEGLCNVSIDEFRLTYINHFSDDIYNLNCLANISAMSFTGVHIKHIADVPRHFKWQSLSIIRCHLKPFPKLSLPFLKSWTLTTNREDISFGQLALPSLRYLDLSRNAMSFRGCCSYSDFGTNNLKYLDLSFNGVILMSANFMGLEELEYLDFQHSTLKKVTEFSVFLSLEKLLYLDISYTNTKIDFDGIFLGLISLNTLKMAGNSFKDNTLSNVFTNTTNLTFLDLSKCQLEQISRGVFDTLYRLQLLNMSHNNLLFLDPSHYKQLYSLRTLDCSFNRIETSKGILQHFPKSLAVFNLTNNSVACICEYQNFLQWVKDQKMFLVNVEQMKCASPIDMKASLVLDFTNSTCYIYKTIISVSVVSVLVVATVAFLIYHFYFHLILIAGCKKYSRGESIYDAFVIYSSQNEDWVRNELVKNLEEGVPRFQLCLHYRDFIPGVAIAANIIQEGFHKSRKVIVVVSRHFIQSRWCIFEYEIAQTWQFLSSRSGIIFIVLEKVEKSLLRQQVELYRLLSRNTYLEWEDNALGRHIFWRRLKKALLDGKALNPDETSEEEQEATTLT
Kind of assay: Inhibition of TLR4 in Sprague-Dawley rat cardiomyocytes assessed as reduction in hypoxia-induced creatine kinase levels preincubated for 1 hr followed by hypoxia for 3 hrs by NADP reduction based colorimetric analysis. The class given is cell-based.

Assay [2] concerns the target T1, Toll-like receptor 4 (Rattus norvegicus). Nature of the assay: Inhibition of TLR4 in Sprague-Dawley rat cardiomyocytes assessed as reduction in hypoxia-induced LDH release preincubated for 1 hr followed by hypoxia for 3 hrs by NADH detection based colorimetric analysis. Type of assay: cell-based. On the technique in general: Release of lactate dehydrogenase indicates damage to the cell membrane.

Assay [3] shares this target. Nature of the assay: Inhibition of TLR4 in Sprague-Dawley rat cardiomyocytes assessed as reduction in hypoxia-induced creatine kinase levels at 10 to 20 uM preincubated for 1 hr followed by hypoxia for 3 hrs by NADP reduction based colorimetric analysis. Type of assay: cell-based.
For assay [4] the target is unchanged. Kind of assay: Inhibition of TLR4 in Sprague-Dawley rat cardiomyocytes assessed as reduction in hypoxia-induced LDH release at 10 to 20 uM preincubated for 1 hr followed by hypoxia for 3 hrs by NADH detection based colorimetric analysis. The class given is cell-based.
The target is the same in assay [5]. Nature of the assay: Inhibition of TLR4 in Sprague-Dawley rat cardiomyocytes assessed as reduction in hypoxia-induced creatine kinase levels at 1 uM preincubated for 1 hr followed by hypoxia for 3 hrs by NADP reduction based colorimetric analysis. Type of assay: cell-based.
The target is the same in assay [6]. Kind of assay: Inhibition of TLR4 in Sprague-Dawley rat cardiomyocytes assessed as reduction in hypoxia-induced LDH release at 1 uM preincubated for 1 hr followed by hypoxia for 3 hrs by NADH detection based colorimetric analysis. The class given is cell-based.
Assay [7] shares this target. Nature of the assay: Inhibition of TLR4 in Sprague-Dawley rat cardiomyocytes assessed as reduction in LPS-induced creatine kinase levels at 10 to 20 uM preincubated for 1 hr followed by LPS stimulation for 5 hrs by NADH detection based colorimetric analysis. The class given is cell-based.
For assay [8] the target is unchanged. Nature of the assay: Inhibition of TLR4 in Sprague-Dawley rat cardiomyocytes assessed as reduction in LPS-induced LDH release at 10 to 20 uM preincubated for 1 hr followed by LPS stimulation for 5 hrs by NADH detection based colorimetric analysis. The class given is cell-based.
Assay [9] shares this target. Nature of the assay: Inhibition of TLR4 in Sprague Dawley rat cardiomyocytes assessed as reduction in LPS induced LDH levels by measuring NADH levels at 10 to 20 uM preincubated for 1 hr followed by induction of hypoxia measured after 5 hrs by colorimetric analysis. Type of assay: cell-based.
Assay [10] relates to Macrophage. Nature of the assay: Antiinflammatory activity in human macrophages assessed reduction in LPS-induced TLR4 expression at 10 uM pretreated for 30 mins followed by LPS stimulation for 4 hrs by FACS analysis. The class given is functional, cell-based.
Assay [11] has as its system Macrophage. Kind of assay: Antiinflammatory activity in human macrophages assessed reduction in TLR4 expression at 10 uM after 4 hrs by FACS analysis. The class given is functional, cell-based. (In flow cytometry, cells or beads pass a laser one at a time.)
In assay [12] the target is T1, Toll-like receptor 4 (Rattus norvegicus). Kind of assay: Inhibition of TLR4 in Sprague-Dawley rat cardiomyocytes assessed as reduction in hypoxia-induced creatine kinase levels at 20 uM preincubated for 1 hr followed by hypoxia for 3 hrs by NADP reduction based colorimetric analysis. The class given is cell-based.
Assay [13] has the same target. Nature of the assay: Inhibition of TLR4 in Sprague-Dawley rat cardiomyocytes assessed as reduction in hypoxia-induced creatine kinase levels at 10 uM preincubated for 1 hr followed by hypoxia for 3 hrs by NADP reduction based colorimetric analysis. The class given is cell-based.
Assay [14] has the same target. Kind of assay: Inhibition of TLR4 in Sprague-Dawley rat cardiomyocytes assessed as reduction in hypoxia-induced LDH release at 10 uM preincubated for 1 hr followed by hypoxia for 3 hrs by NADH detection based colorimetric analysis. Type of assay: cell-based.
Assay [15] shares this target. Nature of the assay: Inhibition of TLR4 in Sprague-Dawley rat cardiomyocytes assessed as reduction in hypoxia-induced LDH release at 20 uM preincubated for 1 hr followed by hypoxia for 3 hrs by NADH detection based colorimetric analysis. The class given is cell-based.
Assay [16] is described as follows: Reduction in hypoxia-induced TLR4 mRNA expression in Sprague-Dawley rat cardiomyocytes at 20 uM preincubated for 1 hr followed by hypoxia for 3 hrs by RT-qPCR analysis relative to untreated control. Type of assay: functional, Cardiac muscle cell. In general terms: Quantitative PCR measures a nucleic acid by following its amplification.
In assay [17] the target is T1, Toll-like receptor 4 (Rattus norvegicus). Nature of the assay: Inhibition of TLR4 in Sprague-Dawley rat cardiomyocytes assessed as reduction in hypoxia-induced IL-1beta mRNA expression at 20 uM preincubated for 1 hr followed by hypoxia for 3 hrs by RT-qPCR analysis. Type of assay: cell-based.

The source made the active and inactive calls. The rule behind the calls is not given here. Where a SMILES comes first, the peptide text is derived from it.

As for `CSCC[C@H](NC(=O)[C@H](CCC(=O)O)NC(=O)[C@H](C)NC(=O)[C@H](Cc1ccccc1)NC(C)=O)C(N)=O` (Ac-FAEM-NH2), the inhibition result in [1] and in assay [2] was “Dose-dependent effect” in each case. Besides, the inhibition entry in assay [3] and in assay [4] was “Active” each time.
Take `Cc1cn(Cc2ccccc2)c(=O)nc1NC1CCCC1`: the inhibition result in [1] and in assay [2] was “inactive” throughout.
As to `CCOc1nc(=O)n(Cc2ccc3ccccc3c2)cc1C`, the inhibition entry in [1] and in [2] was “inactive” each time.
With `Cc1cn(Cc2ccccc2)c(=O)nc1NCCCN(C)C`, the inhibition entry in assay [1] and in assay [2] was “inactive” throughout.
Consider `CCOc1nc(=O)n(Cc2ccc(C(F)(F)F)cc2)cc1C`, for which the inhibition result in assay [1] and in assay [2] was “inactive” each time.
On to `CC[C@H](C)[C@H](NC(C)=O)C(=O)N[C@H](C(=O)N[C@@H](Cc1ccccc1)C(=O)N[C@@H](C)C(N)=O)C(C)C` (Ac-IVFA-NH2), for which the inhibition entry was “Dose-dependent effect” in assay [1], “Dose-dependent effect” in assay [2], 77% in assay [5] and 70% in [6]. Also, the inhibition result in assay [7], in assay [8] and in [9] was “Active” throughout. For the same molecule, the result in the assay on Macrophage [10] and with Macrophage [11] was Active.
Consider `CCC(C)Nc1nc(=O)n(Cc2ccccc2)cc1C` (stereo not drawn), for which the inhibition result in assay [1] and in assay [2] was “inactive” throughout.
Consider `CCCCCCCCNc1nc(=O)n(Cc2ccc([N+](=O)[O-])cc2)cc1C`, for which the inhibition entry in assay [1] and in assay [2] was “inactive” each time.
Consider `CSCC[C@H](NC(C)=O)C(=O)N1CCC[C@H]1C(=O)NC(CS)C(=O)NCC(N)=O` (single isomer, unassigned), for which the inhibition result in assay [1] and in assay [2] was “inactive” throughout.
As for H-IVFAEMPCG-OH, the fold change (FC) in assay [12] was determined as 5.5; in [15], 1.8. Also, the inhibition entry in assay [13] and in assay [14] was “inactive” each time. For the same molecule, the outcome with Macrophage [10] and with Macrophage [11] was Active.
Take `CCCCCCCCCCNc1nc(=O)n(Cc2ccccc2)cc1C`: the inhibition result in assay [1] and in [2] was “inactive” in each case.
Turning to `CCOc1ncc(C)c(OCC)n1`, the inhibition result in [1] and in assay [2] was “inactive” throughout.
Regarding `CSCC[C@H](NC(=O)[C@H](CCC(=O)O)NC(=O)[C@H](C)NC(C)=O)C(=O)N1CCC[C@H]1C(N)=O` (Ac-AEMP-NH2), the inhibition entry in assay [1] and in [2] was “Dose-dependent effect” in each case.
On to `Cc1cn(Cc2ccccc2)c(=O)nc1NCc1ccccc1`, for which the inhibition result in assay [1] and in assay [2] was “inactive” throughout.
In the case of `CSCC[C@H](NC(=O)[C@H](CCC(=O)O)NC(C)=O)C(=O)N1CCC[C@H]1C(=O)NC(CS)C(N)=O` (single isomer, unassigned), the inhibition entry in [1] and in assay [2] was “inactive” throughout.
As for `CC(=O)N[C@@H](Cc1ccccc1)C(=O)N[C@@H](C)C(=O)N[C@@H](CCC(=O)O)C(N)=O` (Ac-Phe-Ala-Glu-NH2), the inhibition entry in [1] and in assay [2] was “inactive” throughout.
As for `Cc1cn(Cc2ccccc2)c(=O)nc1NCCC(C)C`, the inhibition entry in assay [13] and in assay [14] was “Active” in each case. The “fold change (FC)” value in assay [16] was 1.5; in [17], 1.4.
On to `CCCCCCCCNc1nc(=O)n(Cc2ccc(C(F)(F)F)cc2)cc1C`, for which the inhibition entry in [1] and in assay [2] was “inactive” in each case.
Turning to `CC(=O)N[C@H](C(=O)N[C@@H](Cc1ccccc1)C(=O)N[C@@H](C)C(N)=O)C(C)C` (Ac-Val-Phe-Ala-NH2), the inhibition result in assay [1] and in [2] was “inactive” throughout.
With `CC(=O)N[C@H](C(=O)N[C@@H](Cc1ccccc1)C(=O)N[C@@H](C)C(=O)N[C@@H](CCC(=O)O)C(N)=O)C(C)C` (Ac-VFAE-NH2), the inhibition entry in assay [1] and in assay [2] was “Dose-dependent effect” throughout. Besides, the inhibition result in [3], in assay [4], in assay [7], in assay [8] and in assay [9] was “Active” throughout. Further, the result in the assay on Macrophage [10] and in the assay on Macrophage [11] was Active.
For `CCOc1nc(=O)n(Cc2ccccc2)cc1C`, the inhibition result in assay [1] and in assay [2] was “inactive” throughout.
For the molecule `CCOc1nc(=O)n(Cc2ccc([N+](=O)[O-])cc2)cc1C`, the inhibition entry in assay [1] and in [2] was “inactive” each time.
In the case of `CC[C@H](C)[C@H](NC(C)=O)C(=O)N[C@@H](Cc1ccccc1)C(=O)N[C@@H](C)C(N)=O` (Ac-Ile-Phe-Ala-NH2), the inhibition entry in [1] and in [2] was “inactive” throughout.

What is called inhibition is the change of the read-out against control, counted positive when it falls.
